Experimental data taken from US20090136514A1, “Tetracyclines for Treating Ocular Diseases and Disorders” (priority 2005, published 2009).

Experiments:
[1] = test system: VEGF-mediated retinal vascular damage; test: VEGF-induced retinal vascular leakage in rabbits, fundus photography and fluorescein angiography; type: in vivo, Dutch Belted rabbits; design: Leakage, mean score / Hemorrhage/Microaneurism, mean score / Edema, mean score: scale not given here; conditions: for Edema, mean score / Hemorrhage/Microaneurism, mean score / Leakage, mean score / Edema, Difference (Doxy-Vehicle) / (Kenalog-Vehicle) / Hemorrhage/Microaneurism, Difference (Doxy-Vehicle) / (Kenalog-Vehicle) / Leakage, Difference (Doxy-Vehicle) / (Kenalog-Vehicle) / Edema, Difference (Kenalog-Doxy) / Hemorrhage/Microaneurism, Difference (Kenalog-Doxy) / Leakage, Difference (Kenalog-Doxy): 48 hours post-dosing; for Edema, mean score / Hemorrhage/Microaneurism, mean score / Leakage, mean score: 50 μl intravitreal before VEGF165; for Edema, Difference (Doxy-Vehicle) / (Kenalog-Vehicle) / Hemorrhage/Microaneurism, Difference (Doxy-Vehicle) / (Kenalog-Vehicle) / Leakage, Difference (Doxy-Vehicle) / (Kenalog-Vehicle): difference of mean scores to vehicle; for Edema, Difference (Kenalog-Doxy) / Hemorrhage/Microaneurism, Difference (Kenalog-Doxy) / Leakage, Difference (Kenalog-Doxy): difference of mean scores to Doxy
Procedure: Retinal vascular leakage was induced in rabbits by intravitreal injection of VEGF according to the procedures set forth in Edelman et al., Experimental Eye Research 80:249-258 (2005). The protective effect of doxycycline on VEGF-mediated retinal vascular damage was assessed. A total of 12 Dutch Belted rabbits (Covance) were anesthetized with isoflurane inhalation and topical 0.5% proparacaine hydrochloride and each eye studied (24 eyes total). Four animals received a 50 μl intravitreal injection of 0.025% bovine serum albumin (BSA) in sterile phosphate-buffered saline (PBS) (Dow Pharmaceutical Sciences) (vehicle, eight eyes total). Doxycycline was formulated from anhydrous doxycycline (Dow Pharmaceutical Sciences) and reconstituted as a saturated solution of doxycycline in 0.025% BSA in PBS assayed to be at a final doxycycline concentration of approximately 0.067 weight percent. Four animals received 50 μl of the doxycycline formulation in each eye (eight eyes total). Four animals received 50 μl of a 40 mg/mL solution of triamcinolone acetonide (Kenalog®, Bristol Myers-Squibb) in 0.025% BSA in PBS (positive control, eight eyes total). Each injection was followed by a 50 μl intravitreal injection of a 10 μg/mL solution of recombinant human VEGF165 (Vascular Endothelial Growth Factor 165 amino acid residue variant, R&D Systems) in 0.025% BSA in PBS. A 30-gauge ⅝-inch needle was used for the injections. VEGF was purchased from R&D Systems (Minneapolis, Minn.).
Prior to injections, eyes were prepared for injection with 1% tropicamide (2 drops), followed ten minutes later by phenylephrine hydrochloride 2.5% (2 drops). An ophthalmic Betadine solution was then used to moisten the eyes. […]. After five minutes, the Betadine was washed out of the eyes with sterile saline and proparacaine hydrochloride was delivered to each eye.
Animals were then anesthetized with an intravenous injection of a ketamine/xylazine cocktail (77 mg/mL ketamine, 23 mg/mL xylazine) at 0.1 mL/kg.
Vascular leakage, hemorrhage, and edema were assessed using fundus photography and fluorescein angiography (see Table 1). Rabbits were anesthetized with subcutaneous 100 mg/mL ketamine at 35 mg/kg and 100 mg/mL xylazine at 7 mg/kg, eyes were dilated with topical 1% tropicamide, and angiograms were obtained with a Topeon TRC-501X retinal camera coupled to a personal computer with IMAGEnet 2000 software (Topcon Medical Systems Inc., Paramus, N.J.). Intravenous sodium fluorescein injection (12 mg/kg) was performed 48 hours after intravitreal injection of VEGF. Late-phase angiography was performed 4-6 min after intravenous sodium fluorescein injection, […]

[2] = test system: pre-IL-1β; test: pre-IL-1β cleavage by ELISA in human choroidal cultures; type: cell-based; conditions: 0.001% to 5.0% doxycycline
[3] = test system: diabetic retinopathy; test: Topical doxycycline in patients suffering from diabetic retinopathy; type: in vivo, Humans; conditions: between 0.025% and 0.1% daily for one month
Procedure: Ten patients suffering from diabetic retinopathy are treated with topical doxycycline. Two patients each are administered doxycycline at a concentration selected to be between 0.025% and 0.1% daily for one month. The patients are monitored for improvement of macular edema and vascular leakage by fluorescein angiography and scanning ocular fluorophotometry. Decreased vascular leakage in response to doxycycline administration is observed, which leads to a decrease in edema and improved visual acuity in most or all of the patients treated.

[4] = test system: diabetic retinopathy; test: Oral doxycycline in patients suffering from diabetic retinopathy; type: in vivo, Humans; conditions: 50 mg orally twice a day for eight weeks
Procedure: Ten patients suffering from diabetic retinopathy are treated with oral doxycycline 50 mg orally twice a day for eight weeks. The patients are monitored for improvement of macular edema and vascular leakage by fluorescein angiography and scanning ocular fluorophotometry. Decreased vascular leakage in response to doxycycline administration is observed, which leads to a decrease in edema and improved visual acuity.

[5] = most or all of the patients treated

Row | SMILES | Edema, mean score ([1]; Combined Eyes) | Hemorrhage/Microaneurism, mean score ([1]; Combined Eyes) | Leakage, mean score ([1]; Combined Eyes) | Edema, Difference (Doxy-Vehicle) / (Kenalog-Vehicle) ([1]; Combined Eyes) | Hemorrhage/Microaneurism, Difference (Doxy-Vehicle) / (Kenalog-Vehicle) ([1]; Combined Eyes) | Leakage, Difference (Doxy-Vehicle) / (Kenalog-Vehicle) ([1]; Combined Eyes) | Edema, mean score ([1]; Left Eye) | Hemorrhage/Microaneurism, mean score ([1]; Left Eye) | Leakage, mean score ([1]; Left Eye) | Edema, Difference (Doxy-Vehicle) / (Kenalog-Vehicle) ([1]; Left Eye) | Hemorrhage/Microaneurism, Difference (Doxy-Vehicle) / (Kenalog-Vehicle) ([1]; Left Eye) | Leakage, Difference (Doxy-Vehicle) / (Kenalog-Vehicle) ([1]; Left Eye) | Edema, mean score ([1]; Right Eye) | Hemorrhage/Microaneurism, mean score ([1]; Right Eye) | Leakage, mean score ([1]; Right Eye) | Edema, Difference (Doxy-Vehicle) / (Kenalog-Vehicle) ([1]; Right Eye) | Hemorrhage/Microaneurism, Difference (Doxy-Vehicle) / (Kenalog-Vehicle) ([1]; Right Eye) | Leakage, Difference (Doxy-Vehicle) / (Kenalog-Vehicle) ([1]; Right Eye) | Edema ([1]; combined eyes) [units] | Hemorrhage/microaneurism ([1]; combined eyes) [units] | also measured
1 | C[C@H]1c2cccc(O)c2C(O)=C2C(=O)[C@]3(O)C(O)=C(C(N)=O)C(=O)[C@@H](N(C)C)[C@@H]3[C@@H](O)[C@@H]21 [Doxy, doxycycline] | 2.00 | 1.63 | 2.06 | −0.69 | −0.94 | −0.75 | 3.25 | 2.25 | 3.13 | 0.50 | 0.00 | 0.38 | 1.75 | 2 | 1.75 | −0.25 | −0.25 | −0.50 | 2.0 | 1.63 | VEGF-mediated retinal vascular damage ([1]; as compared to the rabbits that received vehicle): reduced; Leakage ([1]; combined eyes): 2.06 units; Edema ([1]; left eye): 3.25 units; Hemorrhage/microaneurism ([1]; left eye): 2.25 units; Leakage ([1]; left eye): 3.13 units; Edema ([1]; right eye): 1.75 units; Hemorrhage/microaneurism ([1]; right eye): 2.0 units; Leakage ([1]; right eye): 1.75 units; pre-IL-1β cleavage [2]: correlate directly with increasing doxycycline concentrations; vascular leakage [3]: Decreased; Edema [3, 5]: decrease; visual acuity [3, 5]: improved; Edema [4]: decrease; visual acuity [4]: improved; vascular leakage ([4]; fluorescein angiography and scanning ocular fluorophotometry): Decreased
2 | CC1(C)O[C@@H]2C[C@H]3[C@@H]4CCC5=CC(=O)C=C[C@]5(C)[C@@]4(F)[C@@H](O)C[C@]3(C)[C@]2(C(=O)CO)O1 [Kenalog, triamcinolone acetonide] | 1.13 | 1.00 | 0.25 | −1.56 | −1.56 | −2.56 | 1.25 | 1.13 | 0.50 | −1.50 | −1.13 | −2.25 | 1.13 | 0.75 | 0.25 | −0.88 | −1.50 | −2.00 | 1.13 | 1.00 | Edema, Difference (Kenalog-Doxy) ([1]; Combined Eyes): −0.88; Hemorrhage/Microaneurism, Difference (Kenalog-Doxy) ([1]; Combined Eyes): −0.63; Leakage, Difference (Kenalog-Doxy) ([1]; Combined Eyes): −1.81; Edema, Difference (Kenalog-Doxy) ([1]; Left Eye): −2.00; Hemorrhage/Microaneurism, Difference (Kenalog-Doxy) ([1]; Left Eye): −1.13; Leakage, Difference (Kenalog-Doxy) ([1]; Left Eye): −2.63; Edema, Difference (Kenalog-Doxy) ([1]; Right Eye): −0.63; Hemorrhage/Microaneurism, Difference (Kenalog-Doxy) ([1]; Right Eye): −1.25; Leakage, Difference (Kenalog-Doxy) ([1]; Right Eye): −1.50; Leakage ([1]; combined eyes): 0.25 units; Edema ([1]; left eye): 1.25 units; Hemorrhage/microaneurism ([1]; left eye): 1.13 units; Leakage ([1]; left eye): 0.50 units; Edema ([1]; right eye): 1.13 units; Hemorrhage/microaneurism ([1]; right eye): 0.75 units; Leakage ([1]; right eye): 0.25 units
